Reference: patent US20170000889A1, “STABLE BROMFENAC OPHTHALMIC SOLUTION” (SENTISS PHARMA PRIVATE LIMITED, priority 2013, published 2017)

Assay: Haziness of citrate-buffered bromfenac formulation on addition of BKC, effect of surfactants
Type: physicochemical
Conditions: for Degradation of the bromfenac solution with the surfactant: compared among different surfactants; for Haziness after addition of BKC to the citrate formulation: surfactant added to citrate-buffered bromfenac solution with benzalkonium chloride
Procedure: In yet other embodiment of the present invention, citrate buffer is used instead of borate buffer but when benzalkonium chloride (BKC) was added in the citrate formulation it causes haziness of the formulation.
The inventors of the present invention extensively studied how to overcome the haziness occurred during the addition of BKC.

| Substance | Degradation of the bromfenac solution with the surfactant | Haziness after addition of BKC to the citrate formulation |
| --- | --- | --- |
| polyoxyl-15-hydroxystearate | least amount of degradation | remove the haziness |
| polysorbate 80 | least amount of degradation | remove the haziness |
